Data: ChEMBL document CHEMBL2202979, “Development of macrocyclic inhibitors of HCV NS3/4A protease with cyclic constrained P2-P4 linkers” (Bioorg Med Chem Lett, 2012)

How the values were obtained:
Hepatitis C virus [1] = assay: Antiviral activity against HCV genotype 1b Con1 infected in human Huh7 cells assessed as inhibition of viral replication in presence of 10% FBS by HCV bicistronic replicon assay; assay type: functional, organism-based, Hepacivirus hominis; conditions: Con1, Huh-7
[2] = Drug level in Sprague-Dawley rat liver at 5 mg/kg, po measured 4 hrs post dose by LC/MS method; assay type: ADME, organism-based; design: dose 5 mg/kg, route oral; conditions: read-out: Drug uptake
[3] = Inhibition of HCV genotype 1b BK NS3/4A protease expressed in Escherichia coli incubated for 30 mins by time-resolved fluorescence assay; design: species or system Hepatitis C virus (isolate BK)
Genome polyprotein [4] = molecular target: Genome polyprotein (Hepacivirus C, UniProt K7XJL6, A156V); assay: Inhibition of HCV genotype 1b BK NS3/4A protease A156V mutant expressed in Escherichia coli incubated for 30 mins by time-resolved fluorescence assay; design: species or system Hepatitis C virus (isolate BK)
Genome polyprotein [5] = molecular target: Genome polyprotein (Hepacivirus C, UniProt K7XJL6, D168V); assay: Inhibition of HCV genotype 1b BK NS3/4A protease D168V mutant expressed in Escherichia coli incubated for 30 mins by time-resolved fluorescence assay; design: species or system Hepatitis C virus (isolate BK)
Genome polyprotein [6] = molecular target: Genome polyprotein (Hepacivirus C, UniProt K7XJL6, A156T); assay: Inhibition of HCV genotype 1b BK NS3/4A protease A156T mutant expressed in Escherichia coli incubated for 30 mins by time-resolved fluorescence assay; design: species or system Hepatitis C virus (isolate BK)
[7] = molecular target: Hepatitis C virus serine protease, NS3/NS4A (Hepatitis C virus, UniProt A3EZI9+D2K2A8, R155K); assay: Inhibition of HCV genotype 1b BK NS3/4A protease R155K mutant expressed in Escherichia coli incubated for 30 mins by time-resolved fluorescence assay; design: species or system Hepatitis C virus (isolate BK)
[8] = Inhibition of HCV genotype 2a JFH NS3/4A protease expressed in Escherichia coli incubated for 30 mins by time-resolved fluorescence assay; design: species or system Hepatitis C virus JFH-1
Hepatitis C virus [9] = assay: Antiviral activity against HCV genotype 1b Con1 infected in human Huh7 cells assessed as inhibition of viral replication in presence of 50% NHS by HCV bicistronic replicon assay; assay type: functional, organism-based, Hepacivirus hominis; conditions: Con1, Huh-7
[10] = Inhibition of HCV subtype 3a NS3/4A protease incubated for 30 mins by time-resolved fluorescence assay; design: species or system Hepatitis C virus subtype 3a

| SMILES | IC50 (Hepatitis C virus [1]) [nM] | concentration at 4 h [2] [µM] | Ki [3] [nM] | Ki (Genome polyprotein [4]) [nM] | Ki (Genome polyprotein [5]) [nM] | Ki (Genome polyprotein [6]) [nM] | Ki [7] [nM] | Ki [8] [nM] | IC50 (Hepatitis C virus [9]) [nM] | Ki [10] [nM] |
| --- | --- | --- | --- | --- | --- | --- | --- | --- | --- | --- |
| C=C[C@@H]1C[C@]1(NC(=O)[C@@H]1C[C@@H]2CN1C(=O)[C@H](C1CCCC1)NC(=O)OCC(C)(C)C[C@@H]1C[C@@H]1c1cc3c(cc(OCC)nc3cc1OC)O2)C(=O)NS(=O)(=O)C1CC1 | 2.3 | 27 | 0.016 | 14 | 1.8 | 2.8 | 0.2 | 0.14 | 11 | 1 |
| C=C[C@@H]1C[C@]1(NC(=O)[C@@H]1C[C@@H]2CN1C(=O)[C@H](C1CCCC1)NC(=O)N(C)[C@@H]1CCC[C@H]1C/C=C/c1cc3c(cc(OCC)nc3cc1OC)O2)C(=O)NS(=O)(=O)C1CC1 |  | 15.9 | < 0.05 | 18 |  | 1.7 | 0.6 |  | 25 | 1.5 |
| C=C[C@@H]1C[C@]1(NC(=O)[C@@H]1C[C@@H]2CN1C(=O)[C@H](C1CCCC1)NC(=O)O[C@@H]1CCC(CCCc3cc4c(cc(OCC)nc4cc3OC)O2)C1)C(=O)NS(=O)(=O)C1CC1 (mixture of isomers) |  |  | < 0.05 | 46 |  | 4.6 | 2 |  | 24 | 5 |
| C=C[C@@H]1C[C@]1(NC(=O)[C@@H]1C[C@@H]2CN1C(=O)[C@H](C1CCCC1)NC(=O)N1CC[C@@H](C1)OCCC/C=C/c1cc3ccc(OC)cc3nc1O2)C(=O)NS(=O)(=O)C1CC1 | 3.1 | 8.6 | 0.016 | 37 | 1.2 | 2.9 | 0.1 | 0.17 | 32 | 3 |
| C=C[C@@H]1C[C@]1(NC(=O)[C@@H]1C[C@@H]2CN1C(=O)[C@H](C1CCCC1)NC(=O)O[C@@H]1CCC[C@H]1CCC/C=C/c1cc3ccc(OC)cc3nc1O2)C(=O)NS(=O)(=O)C1CC1 |  | 30.8 | < 0.05 |  |  | 17 | 0.2 |  | 58 | 11.6 |
| C=C[C@@H]1C[C@]1(NC(=O)[C@@H]1C[C@@H]2CN1C(=O)[C@H](C1CCCCC1)NC(=O)O[C@@H]1CCCC[C@H]1C/C=C/c1cc3c(cc(OCC)nc3cc1OC)O2)C(=O)NS(=O)(=O)C1CC1 |  |  | < 0.05 | 567 |  | 42 | 1.5 |  | 25 | 12.6 |
| C=C[C@@H]1C[C@]1(NC(=O)[C@@H]1C[C@@H]2CN1C(=O)[C@H](C1CCCC1)NC(=O)O[C@@H]1CCC[C@@]1(C)C/C=C/c1cc3c(cc(OCC)nc3cc1OC)O2)C(=O)NS(=O)(=O)C1CC1 |  |  | < 0.05 |  |  | 49 | 0.9 |  | 38 | 4.1 |
| C=C[C@@H]1C[C@]1(NC(=O)[C@@H]1C[C@@H]2CN1C(=O)[C@H](C1CCCCC1)NC(=O)N1CC(C1)OCCC/C=C/c1cc3c(cc(OCC)nc3cc1OC)O2)C(=O)NS(=O)(=O)C1CC1 |  | 4 | < 0.05 | 6.1 |  | 0.2 | 0.2 |  | 64 | 0.9 |
| C=C[C@@H]1C[C@]1(NC(=O)[C@@H]1C[C@@H]2CN1C(=O)[C@H](C1CCCCC1)NC(=O)N1CCO[C@H](CCCCc3cc4c(cc(OCC)nc4cc3OC)O2)C1)C(=O)NS(=O)(=O)C1CC1 |  |  | < 0.05 |  |  | 6.9 | 1 |  | 9 | 5.2 |
| C=C[C@@H]1C[C@]1(NC(=O)[C@@H]1C[C@@H]2CN1C(=O)[C@H](C1CCCC1)NC(=O)N1CC[C@@H](C1)OCCCCCc1cc3ccc(OC)cc3nc1O2)C(=O)NS(=O)(=O)C1CC1 |  | 12 | < 0.05 | 22 |  | 1.5 | 0.1 |  | 31 | 5.9 |
| C=C[C@@H]1C[C@]1(NC(=O)[C@@H]1C[C@@H]2CN1C(=O)[C@H](C1CCCC1)NC(=O)OCC(C)(C)CCCc1cc3c(cc(OCC)nc3cc1OC)O2)C(=O)NS(=O)(=O)C1CC1 |  |  | 0.016 |  | 2.2 |  | 1.2 | 0.14 |  | 2.1 |
| C=C[C@@H]1C[C@]1(NC(=O)[C@@H]1C[C@@H]2CN1C(=O)[C@H](C1CCCC1)NC(=O)N1CC(C1)OCCC/C=C/c1cc3ccc(OC)cc3nc1O2)C(=O)NS(=O)(=O)C1CC1 |  |  | < 0.05 |  |  | 28 | 0.5 |  |  | 38 |
| C=C[C@@H]1C[C@]1(NC(=O)[C@@H]1C[C@@H]2CN1C(=O)[C@H](C1CCCCC1)NC(=O)N1CCC(CC1)OCCC/C=C/c1cc3c(cc(OCC)nc3cc1OC)O2)C(=O)NS(=O)(=O)C1CC1 |  | 11 | < 0.05 | 18 |  | 0.7 | 0.2 |  | 32 | 2.1 |
| C=C[C@@H]1C[C@]1(NC(=O)[C@@H]1C[C@@H]2CN1C(=O)[C@H](C1CCCC1)NC(=O)O[C@H]1C[C@H](C/C=C/c3cc4c(cc(OCC)nc4cc3OC)O2)C1)C(=O)NS(=O)(=O)C1CC1 |  |  | < 0.05 | 16 |  | 4.8 | 2.4 |  | 16 | 7.7 |
| C=C[C@@H]1C[C@]1(NC(=O)[C@@H]1C[C@@H]2CN1C(=O)[C@H](C1CCCC1)NC(=O)O[C@@H]1CCC[C@H]1C/C=C/c1cc3c(cc(OCC)nc3cc1OC)O2)C(=O)NS(=O)(=O)C1CC1 |  | 10.2 | < 0.05 | 15 |  | 0.8 | 0.5 |  | 17 | 4.6 |
| C=C[C@@H]1C[C@]1(NC(=O)[C@@H]1C[C@@H]2CN1C(=O)[C@H](C1CCCCC1)NC(=O)O[C@@H]1COC[C@H]1C/C=C/c1cc3c(cc(OCC)nc3cc1OC)O2)C(=O)NS(=O)(=O)C1CC1 |  | 0.3 | < 0.05 | 23 |  | 0.7 | 0.5 |  | 18 | 1.9 |
| C=C[C@@H]1C[C@]1(NC(=O)[C@@H]1C[C@@H]2CN1C(=O)[C@H](C1CCCCC1)NC(=O)N1CCC[C@@H](C1)OCCCc1cc3c(cc(OCC)nc3cc1OC)O2)C(=O)NS(=O)(=O)C1CC1 |  | 4.4 | < 0.05 | 46 |  | 1.9 | 1.2 |  | 23 | 2.3 |
| C=C[C@@H]1C[C@]1(NC(=O)[C@@H]1C[C@@H]2CN1C(=O)[C@H](C1CCCC1)NC(=O)O[C@@H]1COC[C@H]1CCC/C=C/c1cc3ccc(OC)cc3nc1O2)C(=O)NS(=O)(=O)C1CC1 |  |  | < 0.05 | 64 |  | 7.8 | 0.1 |  | 5 | 5.7 |
| C=C[C@@H]1C[C@]1(NC(=O)[C@@H]1C[C@@H]2CN1C(=O)[C@H](C1CCCC1)NC(=O)OC1CCC1C/C=C/c1cc3c(cc(OCC)nc3cc1OC)O2)C(=O)NS(=O)(=O)C1CC1 (mixture of isomers) |  |  | < 0.05 |  |  | 52 | 2.2 |  |  | 18 |
| C=C[C@@H]1C[C@]1(NC(=O)[C@@H]1C[C@@H]2CN1C(=O)[C@H](C1CCCC1)NC(=O)N1CC(OCC)(CCCCc3cc4c(cc(OCC)nc4cc3OC)O2)C1)C(=O)NS(=O)(=O)C1CC1 |  |  | < 0.05 |  |  | 7.1 | 0.9 |  | 18 | 1 |
| C=C[C@@H]1C[C@]1(NC(=O)[C@@H]1C[C@@H]2CN1C(=O)[C@H](C1CCCCC1)NC(=O)N1CC[C@@H](C1)OC/C=C/c1cc3c(cc(OCC)nc3cc1OC)O2)C(=O)NS(=O)(=O)C1CC1 |  | 4.8 | < 0.05 | 6.8 |  | 0.4 | 0.2 |  | 43 | 1.4 |
| C=C[C@@H]1C[C@]1(NC(=O)[C@@H]1C[C@@H]2CN1C(=O)[C@H](C1CCCCC1)NC(=O)N1CCC(CC1)OCCC/C=C/c1cc3ccc(OC)cc3nc1O2)C(=O)NS(=O)(=O)C1CC1 |  |  | < 0.05 |  |  | 11 | 0.3 |  |  | 27 |
| C=C[C@@H]1C[C@]1(NC(=O)[C@@H]1C[C@@H]2CN1C(=O)[C@H](C1CCCCC1)NC(=O)N1CC[C@H](C1)OC/C=C/c1cc3c(cc(OCC)nc3cc1OC)O2)C(=O)NS(=O)(=O)C1CC1 |  |  | < 0.05 | 134 |  | 2.4 | 0.3 |  | 29 | 3.6 |
| C=C[C@@H]1C[C@]1(NC(=O)[C@@H]1C[C@@H]2CN1C(=O)[C@H](C1CCCCC1)NC(=O)O[C@@H]1CCC[C@H]1C/C=C/c1cc3c(cc(OCC)nc3cc1OC)O2)C(=O)NS(=O)(=O)C1CC1 |  | 37.1 | < 0.05 | 40 |  | 2 | 1.3 |  | 55 | 3.1 |
